Results: patent publication US20240254129A1, “HETEROCYCLIC COMPOUNDS AND USES THEREOF” (Kumquat Biosciences Inc., priority 2021, published 2024)
Read-outs that look alike come from different tables or passages of the source.

Columns and labels:
wildtype Kras / hSOS1 = target: T1, wildtype Kras / hSOS1 (Homo sapiens, UniProt P01116); assay: HTRF assay, wildtype Kras / SOS1 interaction; assay type: binding; conditions: read-out: IC50 against wildtype Kras
T1 construct: made in house; host or cells: E. coli BL21 (DE3)
T1 sequence (P01116 1-188 isoform P01116-2): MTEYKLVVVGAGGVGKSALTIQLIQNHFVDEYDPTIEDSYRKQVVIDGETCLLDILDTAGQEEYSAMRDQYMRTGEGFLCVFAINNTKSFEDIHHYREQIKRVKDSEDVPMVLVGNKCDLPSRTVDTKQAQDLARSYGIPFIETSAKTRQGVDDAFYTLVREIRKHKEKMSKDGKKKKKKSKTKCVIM
How it was run: (§1)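 Compounds tested in duplicate from 10 μM down to 0.01 μM, incubated about 10 min or longer with GST-K-Ras/anti-GST-Eu and His-hSOS1/anti-6His-XL665 in ~5 mM HEPES pH 7.4 buffer with ~150 mM NaCl, DTT, BSA and Igepal. IC50 derived from 665/620 nm emission ratio.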

[1] = target: GST-tagged K-Ras mutant / His-tagged hSOS1 (Homo sapiens, UniProt P01116); assay: HTRF assay, K-Ras mutant / SOS1 interaction; assay type: binding; conditions: read-out: IC50 against mutant Kras
GST-tagged K-Ras mutant / His-tagged hSOS1, sequence (P01116 whole entry G12D, form open): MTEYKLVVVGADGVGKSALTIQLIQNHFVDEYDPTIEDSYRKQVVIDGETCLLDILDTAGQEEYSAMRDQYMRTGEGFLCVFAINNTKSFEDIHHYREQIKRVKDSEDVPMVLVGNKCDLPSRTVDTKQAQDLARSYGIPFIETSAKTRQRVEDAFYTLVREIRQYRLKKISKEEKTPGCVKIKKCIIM
How it was run: as §1

[2] = compound nos. 102-196, general methodology of example 5

IC50 (wildtype Kras / hSOS1; [2]) | IC50 [1, 2] | IC50 (wildtype Kras / hSOS1; compound nos. 401-703) | IC50 ([1]; compound nos. 401-703) | SMILES
> 500 nM | > 500 nM | – | – | CN1CCC[C@H]1COc1nc(N2CCCCC(F)(F)C2)c2cc(Cl)c(-c3cccn4nc(N)nc34)c(F)c2n1 [Compound 182, (S)-8-(6-chloro-4-(3,3-difluoroazepan-1-yl)-8-fluoro-2-((1-methylpyrrol-idin-2-yl)methoxy)quin-azolin-7-yl)[1,2,4]triazolo-[1,5-a]pyridin-2-amine]
– | – | > 500 nM | > 500 nM | Nc1c(-c2ccccc2)cccc1-c1c(Cl)cc2c(N3CC4CCC(C3)N4)nc(OCC34CCCN3CCC4)nc2c1F [Compound 683, 3-(4-(3,8-diazabicyclo-[3.2.1]-octan-3-yl)-6-chloro-8-fluoro-2-((tetrahydro-1H-pyrrolizin-7a(5H)-yl)meth-oxy)quinazolin-7-yl)-[1,1′-biphenyl]-2-amine]
– | – | < 500 nM | < 500 nM | CN1CCC[C@H]1COc1nc(N2CCCCC(N)C2)c2cc(Cl)c(-c3cccc4sc(N)nc34)c(F)c2n1 (stereo partly drawn) [Compound 442, 4-(4-(3-aminoazepan-1-yl)-6-chloro-8-fluoro-2-(((S)-1-methylpyrrolidin-2-yl)-methoxy)quinazolin-7-yl)-benzo[d]thiazol-2-amine]
– | – | < 500 nM | > 500 nM | CN1CCC[C@H]1COc1nc(N2CCCC(C3CC3)CC2)c2cc(Cl)c(-c3cccc4sc(N)nc34)c(F)c2n1 (stereo partly drawn) [Compound 453, 4-(6-chloro-4-(4-cycloprop-propylazepan-1-yl)-8-fluoro-2-(((S)-1-methylpyrrolidin-2-yl)methoxy)quinazolin-7-yl)benzo[d]thiazol-2-amine]
> 500 nM | > 500 nM | – | – | CN1CCC[C@H]1COc1nc(N2CC3CNC(C3)C2)c2cc(Cl)c(-c3cccc4sc(N)nc34)c(F)c2n1 (stereo partly drawn) [Compound 137, 4-(4-(3,6-diazabicyclo-[3.2.1]octan-3-yl)-6-chloro-8-fluoro-2-(((S)-1-methyl-pyrrolidin-2-yl)methoxy)-quinazolin-7-yl)benzo[d]-thiazol-2-amine]
< 500 nM | < 500 nM | – | – | CN1CCC[C@H]1COc1nc(N2CCCCC(F)(F)C2)c2cc(Cl)c(-c3ccc(F)c4sc(N)nc34)c(F)c2n1 [Compound 108, 4-(6-chloro-4-(3,3-difluoro-azepan-1-yl)-8-fluoro-2-(((S)-1-methylpyrrolidin-2-yl)methoxy)quinazolin-7-yl)-7-fluorobenzo[d]thiazol-2-amine]
– | – | > 500 nM | > 500 nM | Nc1nc2c(-c3c(Cl)cc4c(N5C[C@H]6CC[C@@H](C5)C6(F)F)nc(OC[C@@]56CCCN5C[C@H](F)C6)nc4c3F)ccc(F)c2s1 [Compound 655, 4-(6-chloro-4-((1R,5S)-8,8-difluoro-3-azabicyclo[3.2.1]-octan-3-yl)-8-fluoro-2-(((2R,7aS)-2-fluorotetra-hydro-1H-pyrrolizin-7a(5H)-yl)methoxy)quinazolin-7-yl)-7-fluorobenzo[d]thiazol-2-amine]
< 500 nM | > 500 nM | – | – | CN1CCC[C@H]1COc1nc(N2CCN(S(N)(=O)=O)CC(F)(F)C2)c2cc(Cl)c(-c3cccc4sc(N)nc34)c(F)c2n1 [Compound 150, 4-(7-(2-aminobenzo[d]-thiazol-4-yl)-6-chloro-8-fluoro-2-(((S)-1-methyl-pyrrolidin-2-yl)methoxy)-quinazolin-4-yl)-6,6-difluoro-1,4-diazepane-1-sulfonamide]
< 500 nM | < 500 nM | – | – | Nc1nc2c(-c3c(Cl)cc4c(N5CCNCC(F)C5)nc(OCC56CCCN5CCC6)nc4c3F)ccc(F)c2s1 (stereo not shown) [Compound 163, 4-(6-chloro-8-fluoro-4-(6-fluoro-1,4-diazepan-1-yl)-2-((tetrahydro-1H-pyrrolizin-7a(5H)-yl)methoxy)quin-azolin-7-yl)-7-fluorobenzo-[d]thiazol-2-amine]
– | – | > 500 nM | > 500 nM | Nc1c(F)ccc(-c2c(Cl)cc3c(N4CC5CCC(C4)N5)nc(OCC45CCCN4CCC5)nc3c2F)c1F [Compound 563, 3-(4-(3,8-diazabicyclo-[3.2.1]octan-3-yl)-6-chloro-8-fluoro-2-((tetrahydro-1H-pyrrolizin-7a(5H)-yl)meth-oxy)quinazolin-7-yl)-2,6-difluoroaniline]
– | – | > 500 nM | < 500 nM | CN1CCC[C@H]1COc1nc(N2CCCCC(C(N)=O)C2)c2cc(Cl)c(-c3cccc4sc(N)nc34)c(F)c2n1 (stereo partly drawn) [Compound 700, 1-(7-(2-aminobenzo[d]-thiazol-4-yl)-6-chloro-8-fluoro-2-(((S)-1-methyl-pyrrolidin-2-yl)methoxy)-quinazolin-4-yl)azepane-3-carboxamide]
– | – | > 500 nM | > 500 nM | Nc1cc(-c2ccc3c(N4CC5CCC(C4)N5)nc(OCC45CCCN4CCC5)nc3c2F)c2ccccc2n1 [Compound 641, 4-(4-(3,8-diazabicyclo-[3.2.1]octan-3-yl)-8-fluoro-2-((tetrahydro-1H-pyrrol-izin-7a(5H)-yl)methoxy)-quinazolin-7-yl)quinolin-2-amine]
– | – | > 500 nM | < 500 nM | Nc1nc2c(-c3c(Cl)cc4c(N5CC6CCC(CO)(C5)N6)nc(OC[C@@]56CCCN5C[C@H](F)C6)nc4c3F)ccc(F)c2s1 (stereo partly drawn) [Compound 518, (3-(7-(2-amino-7-fluoroben-zo-[d]thiazol-4-yl)-6-chloro-8-fluoro-2-(((2R,7aS)-2-fluorotetrahydro-1H-pyrrol-izin-7a(5H)-yl)methoxy)-quinazolin-4-yl)-3,8-diaza-bicyclo[3.2.1]octan-1-yl)-methanol]
> 500 nM | > 500 nM | – | – | CN1CCC[C@H]1COc1nc(N2CCNCC(F)(F)C2)c2cc(Cl)c(-c3cccc4[nH]c(N)nc34)c(F)c2n1 [Compound 178, 4-(6-chloro-4-(6,6-difluoro-1,4-diazepan-1-yl)-8-fluoro-2-(((S)-1-methylpyrrolidin-2-yl)methoxy)quinazolin-7-yl)-1H-benzo[d]imidazol-2-amine]
< 500 nM | > 500 nM | – | – | CN1CCC[C@H]1COc1nc(N2CCCC(F)(F)CC2)c2cc(Cl)c(-c3cccc4sc(N)nc34)c(F)c2n1 [Compound 119, 4-(6-chloro-4-(4,4-difluoro-azepan-1-yl)-8-fluoro-2-(((S)-1-methylpyrrolidin-2-yl)methoxy)quinazolin-7-yl)-benzo[d]thiazol-2-amine]
– | – | < 500 nM | > 500 nM | CN1CCC[C@H]1COc1nc(N2CCCC(n3ccnc3)CC2)c2cc(Cl)c(-c3cccc4sc(N)nc34)c(F)c2n1 (stereo partly drawn) [Compound 490, 4-(4-(4-(1H-imidazol-1-yl)-azepan-1-yl)-6-chloro-8-fluoro-2-(((S)-1-methylpyr-rolidin-2-yl)methoxy)quin-azolin-7-yl)benzo[d]thiazol-2-amine]
– | – | > 500 nM | < 500 nM | Nc1nc2c(-c3cc4nc(OCC56CCCN5CCC6)nc(N5CC6CCC(C5)N6)c4cc3Cl)ccc(F)c2s1 [Compound 591, 4-(4-(3,8-diazabicyclo-[3.2.1]octan-3-yl)-6-chloro-2-((tetrahydro-1H-pyrrol-izin-7a(5H)-yl)methoxy)-quinazolin-7-yl)-7-fluoro-benzo[d]thiazol-2-amine]
– | – | < 500 nM | < 500 nM | Nc1nc2c(-c3c(Cl)cc4c(N5CCCOC(CO)C5)nc(OCC56CCCN5CCC6)nc4c3F)cccc2s1 (stereo not shown) [Compound 465, (4-(7-(2-aminobenzo[d]-thiazol-4-yl)-6-chloro-8-fluoro-2-((tetrahydro-1H-pyrrolizin-7a(5H)-yl)meth-oxy)quinazolin-4-yl)-1,4-oxazepan-2-yl)methanol]
– | – | > 500 nM | < 500 nM | CN(C)CC1CN(c2nc(OCC34CCCN3CCC4)nc3c(F)c(-c4ccc(F)c5sc(N)nc45)c(Cl)cc23)CCCO1 (stereo not shown) [Compound 681, 4-(6-chloro-4-(2-((dimethyl-amino)methyl)-1,4-oxaze-pan-4-yl)-8-fluoro-2-((tetra-hydro-1H-pyrrolizin-7a(5H)-yl)methoxy)quinazolin-7-yl)-7-fluorobenzo[d]thiazol-2-amine]
< 500 nM | > 500 nM | – | – | Nc1nc2c(-c3c(Cl)cc4c(N5CCOCC(O)C5)nc(OCC56CCCN5C[C@H](F)C6)nc4c3F)ccc(F)c2s1 (stereo partly drawn) [Compound 160, 4-(7-(2-amino-7-fluoro-benzo[d]thiazol-4-yl)-6-chloro-8-fluoro-2-(((2R)-2-fluorotetrahydro-1H-pyrrol-izin-7a(5H)-yl)methoxy)-quinazolin-4-yl)-1,4-oxazepan-6-ol]
< 500 nM | < 500 nM | – | – | CN1CCC[C@H]1COc1nc(N2CCNCC(F)(F)C2)c2cc(Cl)c(-c3cccc4sc(N)nc34)c(F)c2n1 [Compound 102, 4-(6-chloro-4-(6,6-difluoro-1,4-diazepan-1-yl)-8-fluoro-2-(((S)-1-methylpyrrolidin-2-yl)methoxy)quinazolin-7-yl)benzo[d]thiazol-2-amine]
– | – | < 500 nM | > 500 nM | Cc1ccc2cnn(C)c2c1-c1ccc2c(N3CC4CCC(C3)N4)nc(OC[C@@]34CCCN3C[C@H](F)C4)nc2c1F [Compound 478, 4-(3,8-diazabicyclo-[3.2.1]octan-3-yl)-7-(1,6-dimethyl-1H-indazol-7-yl)-8-fluoro-2-(((2R,7aS)-2-fluorotetrahydro-1H-pyrrolizin-7a(5H)-yl)meth-oxy)quinazoline]
> 500 nM | > 500 nM | – | – | CN1CCC[C@H]1COc1nc(N2CCNCC3(CC3)C2)c2cc(Cl)c(-c3cccc4sc(N)nc34)c(F)c2n1 [Compound 128, 4-(6-chloro-8-fluoro-2-(((S)-1-methylpyrrolidin-2-yl)-methoxy)-4-(5,8-diazaspiro-[2.6]nonan-5-yl)quinazolin-7-yl)benzo[d]thiazol-2-amine]
